pIC50: −log10 of the molar value.
Tests used:
[1] = target: T1, Type-1 angiotensin II receptor B (Rattus norvegicus, UniProt P29089); test: Tested for inhibition of [125I]- AII specific binding to rat mesenteric arteries, expressed as IC50
T1 sequence (P29089 whole entry): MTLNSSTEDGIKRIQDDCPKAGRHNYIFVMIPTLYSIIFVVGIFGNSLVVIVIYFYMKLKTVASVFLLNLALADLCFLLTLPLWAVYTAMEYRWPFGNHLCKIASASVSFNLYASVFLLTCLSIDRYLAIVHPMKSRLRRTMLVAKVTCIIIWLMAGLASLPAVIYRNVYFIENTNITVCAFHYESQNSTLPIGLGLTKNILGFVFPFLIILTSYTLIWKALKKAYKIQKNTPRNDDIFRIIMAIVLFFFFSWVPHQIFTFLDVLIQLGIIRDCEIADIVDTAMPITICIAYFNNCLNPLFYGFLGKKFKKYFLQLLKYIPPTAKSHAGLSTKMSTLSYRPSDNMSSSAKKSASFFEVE

Oryctolagus cuniculus [2] = species: Oryctolagus cuniculus; test: Tested for inhibition of AII-induced vasoconstriction of rabbit aorta; assay type: functional
Rattus norvegicus [3] = test: Tested for the dose that produced a 50% inhibition of the pressor response to AII in conscious normotensive rats administered intravenously; assay type: functional; details: iv, read-out: ID50 (the source's name)
[4] = target: T2, Type-1 angiotensin II receptor (Homo sapiens, UniProt P30556); test: Tested for binding affinity to Angiotensin II receptor, type 1
T2 sequence (P30556 whole entry): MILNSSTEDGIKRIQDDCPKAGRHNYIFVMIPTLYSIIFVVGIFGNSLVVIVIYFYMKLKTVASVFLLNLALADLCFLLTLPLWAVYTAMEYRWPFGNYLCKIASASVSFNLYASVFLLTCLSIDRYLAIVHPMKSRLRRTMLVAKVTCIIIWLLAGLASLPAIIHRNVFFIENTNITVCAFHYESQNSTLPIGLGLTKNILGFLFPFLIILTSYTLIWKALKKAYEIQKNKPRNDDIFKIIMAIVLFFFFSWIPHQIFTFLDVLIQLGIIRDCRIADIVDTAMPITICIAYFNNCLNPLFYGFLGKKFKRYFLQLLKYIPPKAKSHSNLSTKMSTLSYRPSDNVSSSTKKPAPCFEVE

Rattus norvegicus [5] = test: Tested for time for the pressor response to AII to recover 50% of its initial effect after intraduodenal dosing of 30 mg/kg; assay type: functional, organism-based; parameters: dose 30 mg/kg
Rattus norvegicus [6] = test: Tested for the dose that produced a 50% inhibition of the pressor response to AII in conscious normotensive rats administered intraduodenally; assay type: functional; details: intraduodenal, read-out: ID50 (the source's name)
Rattus norvegicus [7] = test: Tested for time for the pressor response to AII to recover 50% of its initial effect after intraduodenal dosing of 10 mg/kg; assay type: functional, organism-based; parameters: dose 10 mg/kg
Canis familiaris [8] = test: Tested for lowering of mean arterial blood pressure at a dose of 10 mg/kg id, in 2-kidney, 1-clip Goldblatt renin dependent hypertensive dog for more than 12 hours; assay type: functional, Canis lupus familiaris
Canis familiaris [9] = test: Tested for po dose required to inhibit the pressor effect up to 14 hr in Angiotensin I infused dog; assay type: functional, Canis lupus familiaris
Rattus norvegicus [10] = species: Rattus norvegicus; test: Time required for effect of drug after washout of rat adrenal cortical membranes; assay type: functional
[11] = target: T2, Type-1 angiotensin II receptor; test: Tested for Angiotensin II receptor, type 1 affinity in the presence of 0.25% bovine serum albumin (BSA)
[12] = target: T2, Type-1 angiotensin II receptor; test: Tested for Angiotensin II receptor, type 1 affinity in the absence of bovine serum albumin (BSA)
Oryctolagus cuniculus [13] = species: Oryctolagus cuniculus; test: Tested for inhibition of AII-induced vasoconstriction of rabbit aorta measured at 30% inhibition; assay type: functional
Canis familiaris [14] = test: Tested for po dose required to inhibit the pressor effect up to 20 hr in Angiotensin I infused dog; assay type: functional, Canis lupus familiaris
[15] = target: T2, Type-1 angiotensin II receptor; test: Tested for Angiotensin II receptor, type 1 affinity in the presence of 0.25% BSA
[16] = target: T2, Type-1 angiotensin II receptor; test: Tested for Angiotensin II receptor, type 1 affinity in the absence of BSA

pIC50 [1] | SMILES | Kb (Oryctolagus cuniculus [2]) | ED50 (Rattus norvegicus [3]) | ED50 (Rattus norvegicus [6]) | T1/2 (Rattus norvegicus [7]) | further results
7.45 | CCCCc1ncc(/C=C(\Cc2cccs2)C(=O)O)n1Cc1cc(Cl)c(C(=O)O)cc1Cl | 1.58 nM | 0.68 mg/kg |  |  | 
 | CCCCc1ncc(/C=C(\Cc2cccs2)C(=O)O)n1Cc1ccccc1 |  |  |  |  | pIC50 [4]: 6.36
 | CCCCc1ncc(/C=C(\Cc2cccs2)C(=O)O)n1Cc1ccccc1Cl |  |  |  |  | pIC50 [4]: 5.34
8.98 | CCCCc1ncc(/C=C(\Cc2cccs2)C(=O)O)n1Cc1ccc(C(=O)O)c(Cl)c1 | 0.13 nM | 0.12 mg/kg | 16 mg/kg |  | T1/2 (Rattus norvegicus [5]): 1.8 h
8.84 | CCCCc1ncc(/C=C(\Cc2cccs2)C(=O)O)n1Cc1ccc(C(=O)O)cc1Cl | 0.02 nM | 0.06 mg/kg | 2.4 mg/kg | 2.5 h | 
 | CCCCc1ncc(/C=C(\Cc2cccs2)C(=O)O)n1Cc1ccc(C(=O)O)cc1 [EPROSARTAN] | 0.21 nM | 0.08 mg/kg | 5.5 mg/kg | 1.42 h | Mean blood pressure (Canis familiaris [8]): 35 mmHg; Dose (Canis familiaris [9]): 10 mg/kg; TIME (Rattus norvegicus [10]): 0.5 h; pIC50 [11]: 8.14; pIC50 [12]: 8.70
9.80 | CCCCc1ncc(/C=C(\Cc2cccs2)C(=O)O)n1Cc1ccc(C(=O)O)c(Cl)c1Cl | 0.18 nM | 0.04 mg/kg | 5.4 mg/kg | 1.6 h | 
7.93 | CCCCc1ncc(/C=C(\Cc2cccs2)C(=O)O)n1Cc1ccc(C(=O)O)c2ccccc12 |  | 0.05 mg/kg | 3.8 mg/kg | 2.42 h | Mean blood pressure (Canis familiaris [8]): 35 mmHg; Kb (Oryctolagus cuniculus [13]): 0.059 nM; TIME (Rattus norvegicus [10]): 3 h; Dose (Canis familiaris [14]): 10 mg/kg; pIC50 [15]: 7.51; pIC50 [16]: 8.92

Reference: ChEMBL document CHEMBL1152092, “A potent long-acting imidazole-5-acrylic acid angiotensin II AT-1 receptor antagonist” (Bioorg Med Chem Lett, 1994)
